For 17 compounds, Papp A→B, efflux ratio and half-life results are on record in patent US10849907B2, “Imidazopyridine derivatives and the use thereof as medicament” (Boehringer Ingelheim International GmbH, priority 2017, dated 2020).

For one series, the target named is T1, human BCRP (Homo sapiens, UniProt Q9UNQ0).
T1 construct: expressed in transfected cells; host or cells: MDCKII (Madin-Darby canine kidney) cells
T1 sequence (Q9UNQ0 1-655): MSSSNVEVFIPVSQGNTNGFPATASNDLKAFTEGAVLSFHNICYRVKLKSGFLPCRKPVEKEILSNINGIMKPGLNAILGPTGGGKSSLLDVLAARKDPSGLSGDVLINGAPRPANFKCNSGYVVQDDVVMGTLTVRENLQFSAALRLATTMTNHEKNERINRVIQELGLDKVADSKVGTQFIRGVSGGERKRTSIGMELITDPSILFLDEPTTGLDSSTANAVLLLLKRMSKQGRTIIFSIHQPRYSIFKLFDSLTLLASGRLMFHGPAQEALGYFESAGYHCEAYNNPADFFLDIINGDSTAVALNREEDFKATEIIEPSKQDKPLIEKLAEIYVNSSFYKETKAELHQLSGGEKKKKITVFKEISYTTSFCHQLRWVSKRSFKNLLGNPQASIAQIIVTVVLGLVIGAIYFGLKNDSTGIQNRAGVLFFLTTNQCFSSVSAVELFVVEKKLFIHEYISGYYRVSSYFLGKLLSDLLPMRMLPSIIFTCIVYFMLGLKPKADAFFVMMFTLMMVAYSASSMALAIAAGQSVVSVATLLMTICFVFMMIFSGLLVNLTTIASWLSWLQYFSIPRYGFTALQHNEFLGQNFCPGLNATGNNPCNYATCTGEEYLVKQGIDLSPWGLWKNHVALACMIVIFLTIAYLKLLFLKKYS
Briefly: MDCK assay BCRP: permeability across MDCK-BCRP monolayers. Format: in vitro ADME. The note with it: for Papp A→B: MDCK-BCRP monolayers, apical-to-basal, pH 7.4, 1 or 10 μM; for efflux ratio: pH 7.4, MDCK-BCRP, Papp (b-a) divided by Papp (a-b). As to the method: The MDCK assays provide information on the potential of a compound to pass the blood brain barrier. Permeability measurements across polarized, confluent MDCK-MDR1 cell monolayers grown on permeable filter supports are used as an in vitro absorption model: apparent permeability coefficients (PE) of the compounds across the MDCK-MDR1 cell monolayers are measured (pH 7.4, 37° C.) in apical-to-basal (AB) and basal-to-apical (BA) transport direction. The AB permeability (PEAB) represents drug absorption from the blood into the brain and the BA permeability (PEBA) drug efflux from the brain back into the blood via both, passive permeability as well as active transport mechanisms mediated by efflux and uptake transporters that are expressed on the MDCK-MDR1 cells, predominantly by the overexpressed human MDR1. Identical or similar permeabilities in both transport directions indicate passive permeation, vectorial permeability points to additional active transport mechanisms. Higher PEBA than PEAB (PEBA/PEAB >5) indicates the involvement of active efflux mediated by MDR1, which might compromise the goal to achieve sufficient brain exposure. Therefore, this assay provides valuable support for selection of compounds applicable for further in vivo testing. High permeability not limited by efflux at the blood brain barrier is a favourable characteristic for compounds that are to be used for drugs acting primarily in the CNS. Similar concepts are applicable to the MDCK BCRP assay and its interpretation; consequently, to ensure high permeability at the blood brain barrier, it is highly preferred to minimize the efflux (efflux <5) at both MDR1 and BCRP transporters.
Apparent permeability coefficients (Papp) of the compounds across the MDCK-BCRP monolayers (MDCKII cells transfected with human BCRP cDNA expression plasmid) are measured in apical-to-basal (AB) and basal-to-apical (BA) direction. MDCK-BCRP cells (6×10^5 cells/cm^2) are seeded on filter inserts (Corning, Transwell, polycarbonate, 0.4 μm pore size) and cultured for 9 to 10 days. Compounds dissolved in DMSO stock solution (1-20 mM) are diluted with HTP-4 aqueous buffer (128.13 mM NaCl, 5.36 mM KCl, 1 mM MgSO4, 1.8 mM CaCl2, 4.17 mM NaHCO3, 1.19 mM Na2HPO4, 0.41 mM NaH2PO4, 15 mM HEPES, 20 mM glucose, pH 7.4) supplemented with 0.25% BSA to prepare the transport solutions (final concentration: 1 or 10 μM, final DMSO <=0.5%). The transport solution is applied to the apical or basolateral donor side for measuring A-B or B-A permeability, respectively. The receiver side contains HTP-4 buffer supplemented with 0.25% BSA. Samples are collected at the start and end of experiment from the donor and at various time intervals for up to 2 hours also from the receiver side for concentration measurement by HPLC-MS/MS. Sampled receiver volumes are replaced with fresh receiver solution. Efflux ratio is calculated dividing the Papp (b-a) values by the Papp (a-b) values.

Series [1] can be described thus: Metabolic stability in pooled human liver microsomes. It counts as in vitro ADME. The note with it: pH 7.6; pooled human liver microsomes 1 mg/mL, 1 μM compound, 37° C., NADPH; read-out: Half-life - t½ human liver microsomes. The text has this: Stability in human liver microsomes refers to the susceptibility of compounds to biotransformation in the context of selecting and/or designing drugs with favorable pharmacokinetic properties. The primary site of metabolism for many drugs is the liver. Human liver microsomes contain the cytochrome P450s (CYPs), and thus represent a model system for studying drug metabolization in vitro. Enhanced stability in human liver microsomes is associated with several advantages, including increased bioavailability and adequate half-life, which can enable lower and less frequent dosing of patients. Thus, enhanced stability in human liver microsomes is a favorable characteristic for compounds that are to be used for drugs.
The metabolic degradation of the test compound was assayed at 37° C. with pooled human liver microsomes. The final incubation volume of 60 μl per time point contains TRIS buffer pH 7.6 at room temperature (0.1 M), magnesium chloride (5 mM aqueous solution), microsomal protein (1 mg/mL for human) and the test compound at a final concentration of 1 μM. Following a short preincubation period at 37° C., the reactions were initiated by addition of betanicotinamide adenine dinucleotide phosphate, reduced form (NADPH, 1 mM), and terminated by transferring an aliquot into solvent after different time points. After centrifugation (10000 g, 5 min), an aliquot of the supernatant was assayed by LC-MS/MS for the amount of parent compound. The half-life was determined by the slope of the semi-logarithmic plot of the concentration-time profile.

Take `O=C(OCc1cccc(F)c1)N1CCO[C@H](c2nc3cccnc3[nH]2)C1` [Example 1]: on human BCRP, the Papp A→B was found to be 38 ×10⁻⁶ cm/s and the efflux ratio worked out at 2.4. Also, the half-life at 1 µM in series [1] came out at 38 min.
On the same counts, the results for `O=C(OCc1ccc(F)cc1)N1CCO[C@H](c2nc3cccnc3[nH]2)C1` [Example 2] are 34 ×10⁻⁶ cm/s, 2.9 and 76 min.
On the same counts, the results for `Cc1ccccc1COC(=O)N1CCO[C@H](c2nc3cccnc3[nH]2)C1` [Example 8] are 46 ×10⁻⁶ cm/s, 1.8 and 14 min.
The corresponding values for `Cc1cccc(F)c1COC(=O)N1CCO[C@H](c2nc3cccnc3[nH]2)C1` [Example 10] are 40 ×10⁻⁶ cm/s, 2.2 and 12 min.
In the case of `Cc1ccc(COC(=O)N2CCO[C@H](c3nc4cccnc4[nH]3)C2)c(F)c1` [Example 11], at human BCRP, the apparent permeability from apical to basolateral (Papp A→B) amounted to 63 ×10⁻⁶ cm/s and the efflux ratio was 1. The half-life at 1 µM in series [1] is 24 min.
For the compound `Cc1ccc(COC(=O)N2CCO[C@H](c3nc4cccnc4[nH]3)C2)cc1F` [Example 12], at human BCRP, the Papp A→B worked out at 69 ×10⁻⁶ cm/s and the efflux ratio was found to be 1. The half-life at 1 µM in series [1] was 36 min.
On the same counts, the results for `O=C(OCc1ccc(F)cc1Cl)N1CCO[C@H](c2nc3cccnc3[nH]2)C1` [Example 13] are 72 ×10⁻⁶ cm/s, 0.9 and 37 min.
The corresponding values for `O=C(OCc1ccccc1Cl)N1CCO[C@H](c2nc3cccnc3[nH]2)C1` [Example 14] are 68 ×10⁻⁶ cm/s, 1.2 and 27 min.
Take `O=C(OCc1cccc(F)c1F)N1CCO[C@H](c2nc3cccnc3[nH]2)C1` [Example 15]: on human BCRP, the Papp A→B was 33 ×10⁻⁶ cm/s and the efflux ratio was determined as 2.8. In series [1], the half-life at 1 µM turned out to be 86 min.
On the same counts, the results for `O=C(OCc1c(F)cccc1F)N1CCO[C@H](c2nc3cccnc3[nH]2)C1` [Example 16] are 49 ×10⁻⁶ cm/s, 2.1 and above 130 min.
Take `O=C(OCc1ccccc1)N1CCO[C@H](c2nc3cccnc3[nH]2)C1` [Example 17]: on human BCRP, the Papp A→B was found to be 37 ×10⁻⁶ cm/s and the efflux ratio stood at 2.5. Besides, the half-life at 1 µM in series [1] is above 130 min.
For `Cc1ccc(COC(=O)N2CCO[C@H](c3nc4cccnc4[nH]3)C2)cc1` [Example 18], on human BCRP, the Papp A→B stood at 53 ×10⁻⁶ cm/s and the efflux ratio was 1.2. The half-life at 1 µM in series [1] stood at 51 min.
On the same counts, the results for `O=C(OCc1ccc(F)cc1F)N1CCO[C@H](c2nc3cccnc3[nH]2)C1` [Example 19] are 61 ×10⁻⁶ cm/s, 1.6 and 130 min.
For `O=C(OCc1ccc(C(F)F)cc1)N1CCO[C@H](c2nc3cccnc3[nH]2)C1` [Example 26], on human BCRP, the apical-to-basolateral permeability (Papp A→B) is 24 ×10⁻⁶ cm/s and the efflux ratio was determined as 2.7. The half-life at 1 µM in series [1] was above 130 min.
For the compound `O=C(OCc1ccccc1F)N1CCO[C@H](c2nc3cccnc3[nH]2)C1` [Example 27], at human BCRP, the Papp A→B was 24 ×10⁻⁶ cm/s and the efflux ratio is 5.2. In addition, the half-life at 1 µM in series [1] is 130 min.
On the same counts, the results for `O=C(OCc1ccc(Cl)cc1)N1CCO[C@H](c2nc3cccnc3[nH]2)C1` [Example 28] are 56 ×10⁻⁶ cm/s, 1.2 and above 130 min.
For `Cc1ccc(COC(=O)N2CCO[C@H](c3nc4cc(F)cnc4[nH]3)C2)cc1` [Example 31], at human BCRP, the Papp A→B turned out to be 85 ×10⁻⁶ cm/s and the efflux ratio came to 0.7. For the same compound, the half-life at 1 µM in series [1] turned out to be 16 min.

The term Papp A→B denotes the apparent permeability from the apical to the basolateral side of a cell layer. Low values mean slow passage, high ones fast passage. In general, efflux ratio refers to the permeability from basolateral to apical divided by that in the opposite direction, in the common usage. Broadly, the half-life is the time needed for the level to fall by half in the phase considered.
